Reference: US20030113421A1, “Synergistic combinations of natural of compounds that control decay of fruits and vegetables and reduce contamination by foodborne human pathogens” (priority 2001, published 2003)
Where two headings read alike, the source gives them in different places.

Columns and labels:
[1] = system: E. coli; type: cell-based, Escherichia coli; conditions: for concentration at which inhibitory to E. coli growth: essential oil tested individually
Method: (§1) E. coli (Strain #139 HB101/p5G6) was grown at 24° C. for 48 hr in shake-flask cultures of Lennox broth (LB). Bacterial cells were pelleted by centrifugation in a Sorvall RC-58 centrifuge (Dupont Instruments, Wilmington, Del.) at 3000 g for 20 min, resuspended in sterile distilled water, and centrifuged again. The resulting pellets were dispersed in sterile distilled water and the cell concentration was adjusted to 10^6 CFU per ml using a standard optical density (OD) curve with the OD values of 0.1 and 1 representing viable cell counts of 1×10^6 and 1×10^9, respectively. E. coli 015:H7 and L. monocytogenes isolates were grown overnight at 37° C. in trypticase soy broth and brain heart infusion, respectively. The concentration of cells was adjusted to 10^6 CFU per ml. Botrytis cinerea and Penicillium expansum were isolated from infected fruit and maintained on potato dextrose agar (PDA). A spore suspension was obtained by flooding 2 wk cultures of B. cinerea with sterile distilled water containing 0.1% (v/v) TWEEN 80. Spore counts were determined with a hemacytometer and spore concentrations were adjusted with sterile distilled water to obtain 10^5 spores per ml.
(§2) The individual effects of various essential oils and chitosan salts, and the combined effects of essential oils and chitosan salts on the growth of the indicator organism E. coli and on the postharvest pathogen B. cinerea were determined. To measure the effects of the various treatments on spore germination of B. cinerea and growth of the E. coli, the essential oils: bay, cinnamon, savory, thyme red, allspice, birch, cloves, carvacrol, and hinokitiol (Aroma Vera, Cuber City, Calif.) and MMW chitosan in acetic, propionic, and sorbic acids were combined together with B. cinerea or E. coli to yield final concentrations of 0.1 to 0.025% for the essential oils and 0.1 to 0.0016% for the chitosan salts. For the assays, 500 spores of B. cinerea were added to each treatment in microtiter dishes or three ml of a 2X concentration of E. coli (i.e., 2×10^6 CFU/ml) were combined with three ml of a 2X concentration of treatment in a 15 ml centrifuge tube, agitated overnight, and plated after 24 hr onto LB agar plates (100 μl suspension/plate). The surfactant (Triton×100) was present at a final concentration of 0.04%. […] Four replicate tubes of each treatment were used; each experiment was repeated twice. The viable bacterial cell number was counted by surface plating serially diluted samples in triplicate on LB agar medium. Plates were incubated at 24° C. and colonies were counted at 48 hr. Botrytis spore germination was determined microscopically.

[2] = system: B. cinerea; test: Effect of concentration and of synergistic combinations of essential oils and chitosan salts on spore germination of B. cinerea; type: cell-based, Botrytis cinerea
Method: as §1, §2

[3] = system: E. coli on apple disks; design: species or system Escherichia coli
Method: as §1
Tree-ripe apples (Malus domestica Borkh) cultivar ‘Red delicious’ were hand-picked at harvest maturity at the Appalachian Fruit Research Station, Kearneysville, W. Va. Fruit were sorted to remove any with apparent injuries or infections and stored at 4° C. under refrigeration before being used in the biocontrol tests. Apple disks (10 mm) were excised from selected Red delicious apples using a cork borer. Apple disks were treated by immersion for 90 min in a 0.1% solution of various essential oils and/or their combinations with 0.1 % chitosan salts. Disks were either treated with the different combinations of natural compounds and then inoculated with E. coli by soaking apple disks in a solution of E. coli for 90 min or inoculated with E. coli and incubated at 24° C. for 24 hr. From each treatment four disks were selected randomly, individually homogenized in 5 ml of sterile water, vortexed, and dilution plated in triplicate on a LB agar medium. Plates were incubated at 24° C. and colonies were counted after 48 hr.

[4] = essential oil alone 0.025% v/v, CFU in 100 μl sample
[5] = essential oil alone 0.05% v/v, CFU in 100 μl sample
[6] = essential oil alone 0.075% v/v, CFU in 100 μl sample
[7] = essential oil alone 0.1% v/v, CFU in 100 μl sample

CC(C)c1cccc(=O)c(O)c1 [Hinokitiol, hinokitiol]
Growth of E. coli (CFU), combination [1]: 60 CFU
Growth of E. coli (CFU), combination ([1]; essential oil 0.075% + Chitosan acetate 0.0032%, CFU in 100 μl sample): 102 CFU
Growth of E. coli (CFU), combination ([1]; essential oil 0.075% + Chitosan propionate 0.0032%, CFU in 100 μl sample): 56 CFU
Growth of E. coli (CFU), synergy table ([1]; essential oil 0.075% + Water (no chitosan salt), CFU in 100 μl sample): 1108 CFU
Growth of E. coli (CFU) [1, 4]: TNTC
Growth of E. coli (CFU) [1, 5]: TNTC
Growth of E. coli (CFU) [1, 6]: 812 CFU
Growth of E. coli (CFU) [1, 7]: 0 CFU
concentration at which inhibitory to E. coli growth [1]: 0.075%
Percent Inhibition of Spore Germination, combination [2]: 100%
Percent Inhibition of Spore Germination, combination ([2]; essential oil 0.067% + Chitosan acetate 0.02%): 100%
Percent Inhibition of Spore Germination, combination ([2]; essential oil 0.067% + Chitosan propionate 0.02%): 100%
Percent Inhibition of Spore Germination, synergy table ([2]; essential oil 0.067% + Water (no chitosan salt)): 0%

CCC(=O)O [Propionate]
Eradicant Activity E. coli (CFU) ([3]; apple disks immersed in 10^6 CFU per ml E. coli for 90 min, drained, then treated (0.1% v/v)): TNTC
Protectant Activity E. coli (CFU) ([3]; apple disks treated (0.1% v/v), thereafter immersed in 10^6 CFU per ml E. coli for 90 min, CFU in 100 ml sample): TNTC

CC=CC=CC(=O)O [Sorbate]
Eradicant Activity E. coli (CFU) [3]: TNTC
Protectant Activity E. coli (CFU) [3]: TNTC

Cc1ccc(C(C)C)cc1O [Carvacrol, carvacrol]
Growth of E. coli (CFU), synergy table [1]: 1430 CFU
Growth of E. coli (CFU) [1, 4]: TNTC
Growth of E. coli (CFU) [1, 5]: 0 CFU
Growth of E. coli (CFU) [1, 6]: 0 CFU
Growth of E. coli (CFU) [1, 7]: 0 CFU
concentration at which inhibitory to E. coli growth [1]: 0.05%
